Assay results from ChEMBL document CHEMBL2176899, “Structure-activity relationships and blood distribution of antiplasmodial aminopeptidase-1 inhibitors” (J Med Chem, 2012).
Values after ≈ are worked out from the molar mass of the structure shown. Active and inactive are the calls of the source. The rule behind the calls is not given here.

Legend:
[1] = test system: Plasmodium falciparum; experiment: microbe, parasite or virus in culture; conditions: 3D7, 72 h
Description: Antimalarial activity against Plasmodium falciparum 3D7 infected in human O positive erythrocytes under low oxygen atmosphere after 72 hrs by spectrophotometric analysis

[2] = test system: MRC5; experiment: Cytotoxicity against human MRC5 SV2 cells after 72 hrs by resazurin fluorimetric analysis; assay type: cell-based; conditions: MRC5, 72 h
[3] = biological target: T1, Aminopeptidase N (Sus scrofa, UniProt P15145); experiment: Inhibition of porcine kidney microsomal neutral aminopeptidase using Leu-pNA as substrate preincubated for 10 mins
T1 sequence (P15145 whole entry): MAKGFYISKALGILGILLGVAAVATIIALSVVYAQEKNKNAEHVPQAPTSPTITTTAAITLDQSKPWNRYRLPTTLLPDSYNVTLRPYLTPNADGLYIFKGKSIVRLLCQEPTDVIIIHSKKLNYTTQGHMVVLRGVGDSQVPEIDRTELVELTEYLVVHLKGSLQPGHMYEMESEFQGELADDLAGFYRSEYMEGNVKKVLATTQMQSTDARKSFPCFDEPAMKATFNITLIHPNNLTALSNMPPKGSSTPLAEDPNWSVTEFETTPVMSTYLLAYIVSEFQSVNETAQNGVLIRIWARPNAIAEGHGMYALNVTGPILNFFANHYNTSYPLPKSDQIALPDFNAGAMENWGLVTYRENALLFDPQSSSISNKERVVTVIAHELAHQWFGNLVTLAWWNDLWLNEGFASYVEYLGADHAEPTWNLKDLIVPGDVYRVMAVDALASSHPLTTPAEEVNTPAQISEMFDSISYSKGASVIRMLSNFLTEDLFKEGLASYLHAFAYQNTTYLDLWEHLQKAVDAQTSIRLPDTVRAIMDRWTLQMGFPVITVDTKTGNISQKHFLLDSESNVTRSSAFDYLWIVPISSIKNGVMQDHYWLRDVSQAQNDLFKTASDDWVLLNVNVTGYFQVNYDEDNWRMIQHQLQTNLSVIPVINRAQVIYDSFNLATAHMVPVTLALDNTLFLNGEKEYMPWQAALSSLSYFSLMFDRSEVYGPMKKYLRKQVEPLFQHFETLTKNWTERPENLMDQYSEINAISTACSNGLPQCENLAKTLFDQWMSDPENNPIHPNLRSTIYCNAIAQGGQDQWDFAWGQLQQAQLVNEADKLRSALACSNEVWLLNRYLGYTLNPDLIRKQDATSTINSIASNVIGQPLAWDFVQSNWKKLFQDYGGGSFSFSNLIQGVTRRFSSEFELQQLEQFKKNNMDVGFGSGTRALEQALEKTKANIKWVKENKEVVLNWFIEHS

[4] = Inhibition of Plasmodium falciparum AM1 using Leu-pNA as substrate preincubated for 10 mins
[5] = test system: Plasmodium falciparum; experiment: microbe, parasite or virus in culture; conditions: K1, 72 h
Description: Antimalarial activity against Plasmodium falciparum K1 infected in human O positive erythrocytes under low oxygen atmosphere after 72 hrs by spectrophotometric analysis

[6] = Half life in rat plasma; assay type: ADME, cell-free
[7] = Half life in human plasma; assay type: ADME, cell-free
[8] = Solubility of the compound in PBS at pH 7.4 after 24 hrs; assay type: physicochemical
[9] = Partition coefficient, log D of the compound in octanol-phosphate buffer at pH 7.4; assay type: physicochemical
[10] = biological target: Carbonic anhydrase 2 (Homo sapiens) (UniProt P00918); experiment: Inhibition of human erythrocyte carbonic anhydrase-2 assessed as hydrolysis of 4-nitrophenylacetate at 1 to 50 uM
[11] = Metabolic stability in CD1 mouse RBC assessed as N-(4-Fluorobenzyl)-N'-hydroxy-2-[1-phenylmeth-(E)-ylidene]malonamide fromation through GSH-adduct at 50 mg/kg, ip; assay type: ADME, organism-based, Erythrocyte; set-up: dose 50 mg/kg, route intraperitoneal; conditions: in vivo
[12] = Elimination half life in CD1 mouse RBC at 50 mg/kg, ip; assay type: ADME, organism-based, Erythrocyte; set-up: dose 50 mg/kg, route intraperitoneal; conditions: red blood cells, read-out: beta t1/2 (converted)
[13] = AUC (0 to infinity) in CD1 mouse RBC at 50 mg/kg, ip; assay type: ADME, organism-based, Erythrocyte; set-up: time infinity, dose 50 mg/kg, route intraperitoneal; conditions: in vivo
[14] = AUC (0 to last) in CD1 mouse RBC at 50 mg/kg, ip; assay type: ADME, organism-based, Erythrocyte; set-up: dose 50 mg/kg, route intraperitoneal, time 0 - last; conditions: red blood cells
[15] = test system: Plasma; experiment: Metabolic stability in CD1 mouse plasma assessed as N-(4-Fluorobenzyl)-N'-hydroxy-2-[1-phenylmeth-(E)-ylidene]malonamide fromation through GSH-adduct at 50 mg/kg, ip; assay type: ADME, organism-based; set-up: dose 50 mg/kg, route intraperitoneal; conditions: in vivo
[16] = Elimination half life in CD1 mouse plasma at 50 mg/kg, ip; assay type: ADME, organism-based; set-up: dose 50 mg/kg, route intraperitoneal; conditions: read-out: beta t1/2 (converted)
[17] = AUC (0 to infinity) in CD1 mouse plasma at 50 mg/kg, ip; assay type: ADME, organism-based; set-up: time infinity, dose 50 mg/kg, route intraperitoneal
[18] = AUC (0 to last) in CD1 mouse plasma at 50 mg/kg, ip; assay type: ADME, organism-based; set-up: time 0 - last, dose 50 mg/kg, route intraperitoneal
[19] = test system: Plasma; experiment: Tlast in CD1 mouse plasma at 50 mg/kg, ip; assay type: ADME, organism-based; set-up: dose 50 mg/kg, route intraperitoneal; conditions: in vivo
[20] = test system: Liver; experiment: Metabolic stability in mouse liver microsomes at 1 uM after 30 mins; assay type: ADME, Microsome; conditions: 0.5 h
[21] = Drug metabolism assessed as N-(4-Fluorobenzyl)-N'-hydroxy-2-[1-phenylmeth-(E)-ylidene]malonamide fromation through GSH-adduct at 1 uM up to 60 mins; conditions: 1 h

| IC50 [3] [µM] | IC50 [4] [µM] | IC50 [5] [µM] | Structure (SMILES) | IC50 [2] [µM] | other results |
| --- | --- | --- | --- | --- | --- |
|  |  |  | NC(CCc1ccccc1)P(=O)(O)CC(Cc1ccccc1)C(=O)O (centres undefined) |  | IC50 [1]: 24 µM |
| > 10 | 0.056 | 50.1 | CC(Cc1ccccc1)(C(=O)NO)C(=O)NCc1ccc(F)cc1 (centres undefined) | > 64 |  |
| > 10 | 0.33 |  | O=C(NO)/C(=C/c1ccccc1)C(=O)NCc1ccc(F)cc1 |  |  |
| 2.33 | 0.21 | 24.7 | O=C(NO)C(Cc1ccccc1)C(=O)NCc1cccc(F)c1 (centres undefined) | > 64 |  |
| 2.22 | 0.256 | 37.9 | O=C(NO)C(Cc1ccccc1)C(=O)NCc1ccccc1F (centres undefined) | > 64 |  |
| 3.96 | 0.258 | 41.6 | O=C(NO)C(Cc1ccc(F)cc1)C(=O)NCc1ccc(F)cc1 (centres undefined) | > 64 |  |
| 2 | 0.44 |  | O=C(NO)/C(=C\c1ccccc1)C(=O)NCc1ccncc1 |  |  |
| 2.4 | 0.069 |  | O=C(NO)/C(=C\c1ccc(F)cc1)C(=O)NCc1ccccc1 |  |  |
| 4.2 | 0.043 | 30.4 | O=C(NO)/C(=C\c1ccc(F)cc1)C(=O)NCc1ccc(F)cc1 | 32.2 | half-life [6]: 3 h; half-life [7]: > 24 h; logD [9]: 1.7; solubility at 24 h [8]: 190 µM (≈ 63.1 µg/mL) |
| 4.55 | 1.05 | > 64 | O=C(NO)C(Cc1ccccc1)C(=O)NCc1ccncc1 (centres undefined) | > 64 |  |
|  |  |  | CC(C)C[C@H](NC(=O)[C@@H](O)[C@H](N)Cc1ccccc1)C(=O)O [UBENIMEX] |  | IC50 [1]: 8 µM |
| 1.32 | 0.31 | 36.5 | O=C(NO)C(Cc1ccc(F)cc1)C(=O)NCc1ccccc1 (centres undefined) | > 64 |  |
| > 10 | 0.125 |  | O=C(NO)C(Cc1ccccc1)C(=O)NCc1ccccc1 (centres undefined) |  |  |

| Structure (SMILES) | IC50 [3] [µM] | IC50 [4] [µM] | IC50 [5] [µM] | IC50 [2] [µM] | other results |
| --- | --- | --- | --- | --- | --- |
| O=C(NO)C(Cc1ccccc1)C(=O)NCc1ccc(F)cc1 (centres undefined) |  | 0.027 | 17.4 | > 64 | half-life [6]: 0.8 h; half-life [7]: > 24 h; solubility at 24 h [8]: > 200 µM |
| O=C(NO)/C(=C\c1ccccc1)C(=O)NCc1ccc(F)cc1 |  | 0.006 | 11 | 32 | inhibition [10]: inactive; Stability [11]: Stable; half-life [12]: 1.5 h; AUC [13]: 98 µM·h; AUC(0-t) [14]: 90 µM·h; Stability [15]: Stable; half-life [16]: 1 h; AUC(0-inf) [17]: 68 µM·h; AUC(0-t) [18]: 66 µM·h; Tlast [19]: 6 h; Stability [20]: Stable; half-life [7]: > 24 h; Drug metabolism [21]: Active |
